In patent publication US20170190671A1, “BIS(ARYL)CATECHOL DERIVATIVES AS HERBICIDES” (E I DU PONT DE NEMOURS AND COMPANY, priority 2014, published 2017):

Columns and labels:
Experiment in all cases: Test E postemergence
Assay type in all cases: in vivo
Details in all cases: scale 0 to 100
[1] = tested on: soybean (Glycine max)
How it was run: (§1)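 Preemergence: seeds in silt loam treated with compound in non-phytotoxic solvent with surfactant. Postemergence: plants at 1- to 4-leaf stage (2–18 cm) in peat-based medium sprayed likewise. Greenhouse 14–21 days, then visual rating vs controls, 0 (no effect) to 100 (complete control).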

[2] = tested on: kochia (Kochia scoparia)
How it was run: as §1

[3] = tested on: Brazilian crabgrass (Digitaria horizontalis)
How it was run: as §1

[4] = tested on: field bindweed (Convolvulus arvensis)
How it was run: as §1

[5] = tested on: Italian ryegrass (Lolium multiflorum)
How it was run: as §1

[6] = tested on: wild poinsettia (Euphorbia heterophylla)
How it was run: as §1

[7] = tested on: corn (Zea mays)
How it was run: as §1

[8] = tested on: waterhemp (common waterhemp, Amaranthus rudis)
How it was run: as §1

[9] = tested on: palmer pigweed (Amaranthus palmeri)
How it was run: as §1

[10] = tested on: sandbur (southern sandbur, Cenchrus echinatus)
How it was run: as §1

[11] = tested on: horseweed (Conyza canadensis)
How it was run: as §1

[12] = tested on: hairy beggarticks (Bidens pilosa)
How it was run: as §1

[13] = tested on: dayflower (Virginia (VA) dayflower, Commelina virginica)
How it was run: as §1

[14] = tested on: waterhemp_RES1 (ALS & Triazine resistant common waterhemp, Amaranthus rudis)
How it was run: as §1

[15] = tested on: fall panicum (Panicum dichotomiflorum)
How it was run: as §1

[16] = tested on: waterhemp_RES2 (ALS & HPPD resistant common waterhemp, Amaranthus rudis)
How it was run: as §1

[17] = tested on: barnyardgrass (Echinochloa crus-galli)
How it was run: as §1

[18] = tested on: ragweed (common ragweed, Ambrosia elatior)
How it was run: as §1

Fc1cccc(Oc2ncc(Cl)cn2)c1Oc1ncc(C(F)(F)F)cn1 [Compound 43, 5-chloro-2-[5-fluoro-6-[[5-(trifluoromethyl)-2-pyrimidinyl]oxy]phenoxy]pyrimidine]
Plant response rating, Soybean ([1]; 31 g ai/ha): 70 | Plant response rating, Soybean ([1]; 125 g ai/ha): 95 | Plant response rating, Kochia ([2]; 31 g ai/ha): 75 | Plant response rating, Kochia ([2]; 125 g ai/ha): 95 | Plant response rating, Crabgrass, Brazil ([3]; 31 g ai/ha): 25 | Plant response rating, Crabgrass, Brazil ([3]; 125 g ai/ha): 40 | Plant response rating, Field Bindweed ([4]; 31 g ai/ha): 55 | Plant response rating, Field Bindweed ([4]; 125 g ai/ha): 70 | Plant response rating, Ryegrass, Italian ([5]; 31 g ai/ha): 0 | Plant response rating, Ryegrass, Italian ([5]; 125 g ai/ha): 20 | Plant response rating, Poinsettia, Wild ([6]; 31 g ai/ha): 60 | Plant response rating, Poinsettia, Wild ([6]; 125 g ai/ha): 75 | Plant response rating, Corn ([7]; 31 g ai/ha): 5 | Plant response rating, Corn ([7]; 125 g ai/ha): 15 | Plant response rating, Waterhemp ([8]; 31 g ai/ha): 65 | Plant response rating, Waterhemp ([8]; 125 g ai/ha): 95 | Plant response rating, Pigweed, Palmer ([9]; 31 g ai/ha): 80 | Plant response rating, Pigweed, Palmer ([9]; 125 g ai/ha): 90 | Plant response rating, Sandbur ([10]; 31 g ai/ha): 0 | Plant response rating, Sandbur ([10]; 125 g ai/ha): 10 | Plant response rating, Horseweed ([11]; 31 g ai/ha): 0 | Plant response rating, Horseweed ([11]; 125 g ai/ha): 10 | Plant response rating, Beggarticks ([12]; 31 g ai/ha): 50 | Plant response rating, Beggarticks ([12]; 125 g ai/ha): 60 | Plant response rating, Dayflower, VA ([13]; 31 g ai/ha): 50 | Plant response rating, Dayflower, VA ([13]; 125 g ai/ha): 70 | Plant response rating, Waterhemp_RES1 ([14]; 31 g ai/ha): 65 | Plant response rating, Waterhemp_RES1 ([14]; 125 g ai/ha): 80 | Plant response rating, Panicum, Fall ([15]; 31 g ai/ha): 40 | Plant response rating, Panicum, Fall ([15]; 125 g ai/ha): 50 | Plant response rating, Waterhemp_RES2 ([16]; 31 g ai/ha): 65 | Plant response rating, Waterhemp_RES2 ([16]; 125 g ai/ha): 80 | Plant response rating, Barnyardgrass ([17]; 31 g ai/ha): 0 | Plant response rating, Barnyardgrass ([17]; 125 g ai/ha): 15 | Plant response rating, Ragweed ([18]; 31 g ai/ha): 50 | Plant response rating, Ragweed ([18]; 125 g ai/ha): 60
